This experiment relates to beta-TC6 cells. The experiment in a line: Insulin HTRF assay (relative activity Ar) in beta-TC6 cells. Format: cell-based, mouse. Conditions: Mus musculus, Beta-TC6, 4 h, insulin HTRF, supernatant of beta-TC6 cells, incubation with test compound at 37°C for 2, 3, 4h; read-out: Ar (relative activity). In outline:
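beta-TC6 cells (15k/well, seeded 24 or 48 h) washed, then exposed to compound in induction buffer (0.5% DMSO final) for 2, 3 or 4 h at 37°C.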
On the technique in general: In TR-FRET formats the signal depends on donor and acceptor labels being close together.
`CN(C)C(=O)c1ccc(-c2cc3cnc(Nc4cccc(N(C)C)c4)cc3n2C)cc1` [Compound 50, 4-[6-[3-(dimethylamino)anilino]-1-methyl-pyrrolo[3,2-c]pyridin-2-yl]-N,N-dimethyl-benzamide]: the Emax lay within 50 to 100%.

As for `CN(C)C(=O)c1ccc(-c2cc3cnc(Nc4cccc(Cl)c4)cc3[nH]2)cc1` [Compound 23, 4-[6-(3-chloroanilino)-1H-pyrrolo[3,2-c]pyridin-2-yl]-N,N-dimethyl-benzamide], the Emax lay in the range of 30 to 50%.

Take `CC(C)Oc1cccc(Nc2cc3[nH]c(-c4ccccn4)cc3cn2)c1` [Compound 73, N-(3-isopropoxyphenyl)-2-(2-pyridyl)-1H-pyrrolo[3,2-c]pyridin-6-amine]: the Emax was in the range of 50 to 100%.

As for `COCCCNc1nccc2[nH]c(-c3ccc(OC)cc3)nc12` [Compound 401, 2-(4-methoxyphenyl)-N-(3-methoxypropyl)-1H-imidazo[4,5-c]pyridin-4-amine], the Emax was 30 to 50%.

For `CNc1nc2cnc(Nc3cccc(C(C)=O)c3)cc2n1-c1ccccc1` [Compound 517, 1-[3-[[2-(methylamino)-1-phenyl-imidazo[4,5-c]pyridin-6-yl]amino]phenyl]ethanone], the Emax lay in the range of 50 to 100%.

With `Cc1cccc(CNc2nc3cnc(Nc4cccc(NS(C)(=O)=O)c4)cc3n2C)c1` [Compound 587, N-[3-[[1-methyl-2-(m-tolylmethylamino)imidazo[4,5-c]pyridin-6-yl]amino]phenyl]methanesulfonamide], the Emax is 50 to 100%.

For `FC(F)(F)c1cccc(-c2nc3c(NCCN4CCOCC4)nccc3[nH]2)c1` [Compound 357, N-(2-morpholinoethyl)-2-[3-(trifluoromethyl)phenyl]-1H-imidazo[4,5-c]pyridin-4-amine], the Emax lay within 30 to 50%.

Take `Nc1cccc(-c2cc3cnc(Nc4cccnc4)cc3[nH]2)c1` [Compound 2, 2-(3-aminophenyl)-N-(3-pyridyl)-1H-pyrrolo[3,2-c]pyridin-6-amine]: the Emax was 30 to 50%.

`CS(=O)(=O)Nc1cccc(Nc2cc3[nH]c(-c4cccc(F)c4)cc3cn2)c1` [Compound 13, N-[3-[[2-(3-fluorophenyl)-1H-pyrrolo[3,2-c]pyridin-6-yl]amino]phenyl]methanesulfonamide]: the Emax fell in the range of 50 to 100%.

Take `Cc1ccc(-c2nc3c(Nc4ccccc4)nccc3[nH]2)cc1` [Compound 380, N-phenyl-2-(p-tolyl)-1H-imidazo[4,5-c]pyridin-4-amine]: the Emax fell in the range of 30 to 50%.

As for `c1cncc(-c2cc3cnc(Nc4ccncc4)cc3[nH]2)c1` [Compound 76, 2-(3-pyridyl)-N-(4-pyridyl)-1H-pyrrolo[3,2-c]pyridin-6-amine], the Emax lay in the range of 30 to 50%.

As to `CNc1nc2cnc(Nc3cccc(C)c3)cc2n1Cc1ccccc1` [Compound 530, 1-benzyl-N2-methyl-N6-(m-tolyl)imidazo[4,5-c]pyridine-2,6-diamine], the Emax is 30 to 50%.

Regarding `Cc1cccc(-c2nc3c(Nc4cccc(NS(C)(=O)=O)c4)nccc3[nH]2)c1` [Compound 439, N-[3-[[2-(m-tolyl)-1H-imidazo[4,5-c]pyridin-4-yl]amino]phenyl]methanesulfonamide], the Emax lay in the range of 30 to 50%.

On to `COc1ccccc1-c1cc2c(Nc3ccc(S(C)(=O)=O)cc3)nccc2[nH]1` [Compound 300, 2-(2-methoxyphenyl)-N-(4-methylsulfonylphenyl)-1H-pyrrolo[3,2-c]pyridin-4-amine], for which the Emax lay within 50 to 100%.

Regarding `CS(=O)(=O)c1cccc(Nc2nccc3[nH]c(-c4cccc(F)c4)cc23)c1` [Compound 202, 2-(3-fluorophenyl)-N-(3-methylsulfonylphenyl)-1H-pyrrolo[3,2-c]pyridin-4-amine], the Emax is 30 to 50%.

In the case of `CS(=O)(=O)c1ccc(Nc2nccc3[nH]c(-c4cccc(F)c4)cc23)cc1` [Compound 207, 2-(3-fluorophenyl)-N-(4-methylsulfonylphenyl)-1H-pyrrolo[3,2-c]pyridin-4-amine], the Emax is 50 to 100%.

Take `CNc1nc2cnc(Nc3ccc(F)cc3)cc2n1Cc1cccnc1` [Compound 565, N6-(4-fluorophenyl)-N2-methyl-1-(3-pyridylmethyl)imidazo[4,5-c]pyridine-2,6-diamine]: the Emax lay within 50 to 100%.

`COc1ccc(Cn2cnc3cnc(Nc4ccc5c(c4)OCO5)cc32)cc1OC` [Compound 731, N-(1,3-benzodioxol-5-yl)-1-[(3,4-dimethoxyphenyl)methyl]imidazo[4,5-c]pyridin-6-amine]: the Emax lay in the range of 50 to 100%.

Consider `Cc1cccc(Nc2nccc3c2cc(-c2cccnc2)n3C)c1` [Compound 241, 1-methyl-N-(m-tolyl)-2-(3-pyridyl)pyrrolo[3,2-c]pyridin-4-amine], for which the Emax was 0 to 30%.

In the case of `COC(=O)c1ccc(Nc2cc3[nH]c(-c4ccc(C(=O)N(C)C)cc4)cc3cn2)cc1` [Compound 29, methyl 4-[[2-[4-(dimethylcarbamoyl)phenyl]-1H-pyrrolo[3,2-c]pyridin-6-yl]amino]benzoate], the Emax lay in the range of 30 to 50%.

Turning to `CNc1nc2cnc(Nc3cccc(C)c3)cc2n1Cc1cccnc1` [Compound 564, N2-methyl-N6-(m-tolyl)-1-(3-pyridylmethyl)imidazo[4,5-c]pyridine-2,6-diamine], the Emax is 50 to 100%.

As for `COCCNC(=O)c1cccc(-c2nc3c(Nc4ccccc4)nccc3[nH]2)c1` [Compound 387, 3-(4-anilino-1H-imidazo[4,5-c]pyridin-2-yl)-N-(2-methoxyethyl)benzamide], the Emax was 30 to 50%.

Take `COc1ccc(Nc2cc3c(cn2)cc(-c2cnn(C)c2)n3C)cc1OC` [Compound 129, N-(3,4-dimethoxyphenyl)-1-methyl-2-(1-methylpyrazol-4-yl)pyrrolo[3,2-c]pyridin-6-amine]: the Emax is above 100%.

`COc1ccc(Nc2nccc3c2cc(-c2cccnc2)n3C)c(C)c1` [Compound 240, N-(4-methoxy-2-methyl-phenyl)-1-methyl-2-(3-pyridyl)pyrrolo[3,2-c]pyridin-4-amine]: the Emax is 0 to 30%.

In the case of `Cn1c(-c2ccsc2)cc2c(Nc3ccc4c(c3)OCCO4)nccc21` [Compound 273, N-(2,3-dihydro-1,4-benzodioxin-6-yl)-1-methyl-2-(3-thienyl)pyrrolo[3,2-c]pyridin-4-amine], the Emax fell in the range of 30 to 50%.

Consider `CC(=O)c1cccc(Nc2cc3c(cn2)cc(-c2cccnc2)n3C)c1` [Compound 97, 1-[3-[[1-methyl-2-(3-pyridyl)pyrrolo[3,2-c]pyridin-6-yl]amino]phenyl]ethanone], for which the Emax lay in the range of 30 to 50%.

Turning to `CNc1nc2cnc(Nc3ccc(NC(C)=O)cc3)cc2n1CC1CC1` [Compound 568, N-[4-[[1-(cyclopropylmethyl)-2-(methylamino)imidazo[4,5-c]pyridin-6-yl]amino]phenyl]acetamide], the Emax lay in the range of 50 to 100%.

In the case of `CNc1nc2cnc(-c3ccc(N(C)C)cc3)cc2n1-c1cccc(F)c1` [Compound 678, 6-(4-dimethylaminophenyl)-1-(3-fluorophenyl)-N-methyl-imidazo[4,5-c]pyridin-2-amine], the Emax was above 100%.

As to `CNc1nc2cnc(Nc3ccc(OC)cc3)cc2n1CCN1CCOCC1` [Compound 557, N6-(4-methoxyphenyl)-N2-methyl-1-(2-morpholinoethyl)imidazo[4,5-c]pyridine-2,6-diamine], the Emax lay in the range of 50 to 100%.

Turning to `COc1ccc(-c2cc3c(cn2)nc(NCc2cccc(C)c2)n3C)cc1` [Compound 807, 6-(4-methoxyphenyl)-1-methyl-N-(m-tolylmethyl)imidazo[4,5-c]pyridin-2-amine], the Emax lay within 30 to 50%.

With `COc1ccccc1Nc1nc2cnc(-c3cccnc3)cc2n1C` [Compound 613, N-(2-methoxyphenyl)-1-methyl-6-(3-pyridyl)imidazo[4,5-c]pyridin-2-amine], the Emax lay within 50 to 100%.

Turning to `Cn1cc(-c2cc3cnc(Nc4cccc(NS(C)(=O)=O)c4)cc3n2Cc2ccccc2)cn1` [Compound 156, N-[3-[[1-benzyl-2-(1-methylpyrazol-4-yl)pyrrolo[3,2-c]pyridin-6-yl]amino]phenyl]methanesulfonamide], the Emax was in the range of 30 to 50%.

For the compound `Cc1cccc(Nc2cc3[nH]c(-c4ccccn4)cc3cn2)c1` [Compound 64, N-(m-tolyl)-2-(2-pyridyl)-1H-pyrrolo[3,2-c]pyridin-6-amine], the Emax lay within 50 to 100%.

On to `COc1ccc(Cn2cnc3cnc(-c4cccnc4)cc32)cc1OC` [Compound 737, 1-[(3,4-dimethoxyphenyl)methyl]-6-(3-pyridyl)imidazo[4,5-c]pyridine], for which the Emax was 50 to 100%.

For `CN(C)c1cccc(Nc2nccc3c2ncn3C)c1` [Compound 450, N1,N1-dimethyl-N3-(1-methylimidazo[4,5-c]pyridin-4-yl)benzene-1,3-diamine], the Emax fell in the range of 30 to 50%.

Regarding `Cn1c(-c2ccsc2)cc2c(Nc3ccncc3)nccc21` [Compound 278, 1-methyl-N-(4-pyridyl)-2-(3-thienyl)pyrrolo[3,2-c]pyridin-4-amine], the Emax fell in the range of 50 to 100%.

For the compound `COc1cccc(Nc2nccc3c2cc(-c2ccc(C(=O)N(C)C)cc2)n3C)c1` [Compound 212, 4-[4-(3-methoxyanilino)-1-methyl-pyrrolo[3,2-c]pyridin-2-yl]-N,N-dimethyl-benzamide], the Emax lay in the range of 30 to 50%.

Regarding `COc1ccc(OC)c(CCNc2nc3cnc(-c4ccsc4)cc3n2C)c1` [Compound 592, N-[2-(2,5-dimethoxyphenyl)ethyl]-1-methyl-6-(3-thienyl)imidazo[4,5-c]pyridin-2-amine], the Emax lay in the range of 50 to 100%.

Turning to `CC(=O)Nc1cccc(Nc2cc3[nH]c(-c4cccc(F)c4)cc3cn2)c1` [Compound 15, N-[3-[[2-(3-fluorophenyl)-1H-pyrrolo[3,2-c]pyridin-6-yl]amino]phenyl]acetamide], the Emax fell in the range of 30 to 50%.

Consider `Cn1cc(-c2cc3cnc(Nc4ccncn4)cc3n2C)cn1` [Compound 147, 1-methyl-2-(1-methylpyrazol-4-yl)-N-pyrimidin-4-yl-pyrrolo[3,2-c]pyridin-6-amine], for which the Emax was in the range of 50 to 100%.

For the compound `COc1ccc(Nc2cc3c(cn2)cc(-c2cccnc2)n3C)c(OC)c1` [Compound 83, N-(2,4-dimethoxyphenyl)-1-methyl-2-(3-pyridyl)pyrrolo[3,2-c]pyridin-6-amine], the Emax lay in the range of 50 to 100%.

(Values after patent publication EP2818472A1, “Imidazo[4,5-c]pyridine and pyrrolo[3,2-c]pyridine compounds as G-protein-coupled receptor kinase 5 (GRK5) modulators” (Max-Planck-Gesellschaft zur Förderung der Wissenschaften …, priority 2013, dated 2014).)
